The NIST ThermoML archive (doi:10.1016/j.jct.2015.09.005)
Numbers after ± are expanded uncertainties.

Settings: Liquid, Gas chromatography

| vapor or sublimation pressure (298.15 K) | vapor or sublimation pressure (308.15 K) | vapor or sublimation pressure (318.15 K) | vapor or sublimation pressure (328.15 K) | vapor or sublimation pressure (338.15 K) | vapor or sublimation pressure (348.15 K) | vapor or sublimation pressure (350 K) | SMILES |
| --- | --- | --- | --- | --- | --- | --- | --- |
| 0.00092 ± 9e-05 kPa | 0.0022 ± 0.0002 kPa | 0.005 ± 0.0005 kPa | 0.011 ± 0.001 kPa | 0.022 ± 0.002 kPa | 0.045 ± 0.005 kPa | 0.05 ± 0.005 kPa | CC1=COC(=O)[C@H]2[C@@H]1CC[C@@H]2C |
| 0.0012 ± 0.0001 kPa | 0.0029 ± 0.0003 kPa | 0.0066 ± 0.0007 kPa | 0.014 ± 0.002 kPa | 0.029 ± 0.003 kPa | 0.056 ± 0.006 kPa | 0.064 ± 0.006 kPa | CC1=COC(=O)[C@@H]2[C@@H]1CC[C@@H]2C |
